Test results reported in patent US9492508B2, “Parathyroid hormone analogs and uses thereof” (The General Hospital Corporation, priority 2010, dated 2016).
Entries after “also recorded” stand apart in the source; their conditions may differ. Ends that are not written are not given here.

Assays:
rat PTHR1 (R0) = target: T1, rat PTHR1 (R0) (Rattus norvegicus, UniProt P25961); experiment: Competition binding, R0 conformation of rat PTHR1; conditions: for IC50: R0 conformation, mean of 4 experiments, read-out: Binding rat PTHR1 IC50 (Log M) R0 (converted)
T1 sequence (P25961 27-591): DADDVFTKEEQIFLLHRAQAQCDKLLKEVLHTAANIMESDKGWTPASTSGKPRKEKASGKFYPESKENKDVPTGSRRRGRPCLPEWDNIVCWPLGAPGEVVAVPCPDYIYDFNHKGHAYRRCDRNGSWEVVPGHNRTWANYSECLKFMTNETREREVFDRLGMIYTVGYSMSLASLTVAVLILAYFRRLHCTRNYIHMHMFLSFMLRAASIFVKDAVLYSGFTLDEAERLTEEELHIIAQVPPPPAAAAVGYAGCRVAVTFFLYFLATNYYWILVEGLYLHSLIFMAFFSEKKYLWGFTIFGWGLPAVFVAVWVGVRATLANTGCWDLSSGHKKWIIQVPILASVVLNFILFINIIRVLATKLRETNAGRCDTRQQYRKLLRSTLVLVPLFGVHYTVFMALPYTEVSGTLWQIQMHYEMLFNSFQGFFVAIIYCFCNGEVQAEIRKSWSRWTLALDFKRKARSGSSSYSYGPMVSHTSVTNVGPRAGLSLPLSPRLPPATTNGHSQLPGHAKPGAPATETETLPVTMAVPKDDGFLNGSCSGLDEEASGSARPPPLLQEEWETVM
Description: (§1) Briefly, the R^0 form of the receptor can be favored by addition of the non-hydrolyzable nucleotide analog GTPγS. The RG form can be favored, for example, by co-transfection of cells with a negative dominant Gαs subunit. […] Data are means of four experiments, each performed in duplicate. Curves were fit to the data using Graph-Pad Prism 4.0.

[1] = Plasma concentration in cynomolgus monkey after intravenous injection; format: in vivo; conditions: male, 1 nmol/kg intravenous
Experimental: FIG. 11B is a graph showing plasma concentration of SP-PTH (SEQ ID NO:11) in monkey following intravenous injection of 1 nmol/kg.
The effects of the SP-PTH (SEQ ID NO:11) and SP-PTH-AAK (SEQ ID NO:4) (“SP-AAK”) on serum and urinary calcium and phosphate levels were tested in cynomolgus monkeys. Briefly, three- or four-year-old, male cynomolgus monkeys (HAMRI Co., Ltd., Ibaraki, Japan) were measured for their body weight. Blood was collected into tubes. Monkeys received intravenous or subcutaneous administration of each polypeptide at a dose of 0.3 ml/kg. Polypeptide concentrations in stock solution were adjusted by dilution with 25 mmol/L phosphate-citrate buffer/100 mmol/L NaCl/0.05% Tween 80 (pH.5.0) (PC-buffer). All polypeptides were allowed to stand on ice immediately before administration. Polypeptides were administered to groups of three monkeys each respectively. At 1, 2, 4, and 8 hours after administration, blood was collected by saphenous vein to monitor the time course of calcium and phosphorus levels (FIG. 11A).

rat PTHR1 (RG) = target: T2, rat PTHR1 (RG) (Rattus norvegicus, UniProt P25961); experiment: Competition binding, RG conformation of rat PTHR1
T2 construct: expressed in transfected cells
T2 sequence (P25961 27-591): T1 sequence (P25961 27-591)
Description: as §1

[2] = Stability in phosphate-citrate buffers and 10 mM acetic acid, reverse-phase HPLC; format: physicochemical; conditions: 4 weeks
Experimental: The amount of intact SP-PTH-AAK (SEQ ID NO:4) peptide remaining in the sample, as compared to the starting sample, was measured by rPHPLC.
Stability testing of SP-PTH-AAK (SEQ ID NO:4) was also performed. SP-PTH-AAK (SEQ ID NO:4) was stored at different peptide concentrations in 50 mM phosphate-citrate (PC) buffer (pH 4.0, 4.5, and 5.5) and 10 mM acetic acid at 5, 25, and 40° C. for 4 weeks.

PD PTH receptor = target: T3, PD PTH receptor (Mus musculus, UniProt P41593, S489A/S491A/S492A/S493A/S495A/S501A/S504A); experiment: Blood calcium and cAMP in knock-in mice with phosphorylation-deficient (PD) PTH receptor vs wild-type; format: in vivo; conditions: FIG. 19
T3 construct: endogenous in cells; host or cells: knock-in mice (in vivo)
T3 sequence (P41593 27-591 S489A/S491A/S492A/S493A/S495A/S501A/S504A): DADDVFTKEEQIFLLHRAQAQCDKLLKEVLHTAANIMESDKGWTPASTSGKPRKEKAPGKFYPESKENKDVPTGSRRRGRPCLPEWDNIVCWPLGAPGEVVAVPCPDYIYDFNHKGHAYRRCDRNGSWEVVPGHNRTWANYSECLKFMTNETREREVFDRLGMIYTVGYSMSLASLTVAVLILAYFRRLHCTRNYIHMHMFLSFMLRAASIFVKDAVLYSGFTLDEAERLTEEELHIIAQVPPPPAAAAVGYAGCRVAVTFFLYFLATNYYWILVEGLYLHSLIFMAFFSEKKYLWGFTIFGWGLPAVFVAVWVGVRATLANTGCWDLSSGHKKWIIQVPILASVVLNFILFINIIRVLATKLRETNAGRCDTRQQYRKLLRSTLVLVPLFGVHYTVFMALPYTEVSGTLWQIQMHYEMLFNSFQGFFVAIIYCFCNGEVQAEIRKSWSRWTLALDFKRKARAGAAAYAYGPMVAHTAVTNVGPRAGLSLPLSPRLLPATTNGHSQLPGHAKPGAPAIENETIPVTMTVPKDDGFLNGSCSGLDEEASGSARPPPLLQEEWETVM
Experimental: The activity of SP-PTH-AAK (SEQ ID NO:4) was tested in “knock-in” mice that express a PD PTH receptor in place of the wild-type PTH receptor (Bounoutas et al., Endocrinology 147: 4674, 2006).
Blood cAMP levels were also compared between the two types of mice.

[3] = Solubility, in vitro precipitation assay (PBS pH 7.4 vs 10 mM acetic acid); format: physicochemical; conditions: PBS pH 7.4, 1 h room temperature, FIG. 16A
Experimental: The relative solubilities of SP-PTH-AAK (SEQ ID NO:4) and SP-PTH (SEQ ID NO:11) in different buffers were assessed in an in vitro precipitation assay. For each polypeptide, two vials, each containing 50 μg of lyophilized polypeptide powder, were prepared; one vial was reconstituted in 50 μl of PBS at pH 7.4; the other vial was reconstituted in 50 μl of 10 mM acetic acid (pH 2.9) to give final concentrations of 1.0 mg/ml […]. After one hour at room temperature, the vials were centrifuged at 15,000×g for 2 minutes. The supernatant was removed and the protein content assayed using the Pierce BCA assay (Thermo Fischer Scientific, Rockford, Ill.). For each polypeptide, the content of the PBS sample was expressed as percent of the content of the corresponding acetic acid sample.

IC50 (rat PTHR1 (R0)) [nM] | half-life [1] [min] | IC50 (rat PTHR1 (RG); RG conformation, read-out: Binding rat PTHR1 IC50 nM RG (converted)) [nM] | stability, intact peptide by reverse-phase HPLC at 25° C. ([2]; 50 mM PC buffer pH 4.0, 4.5, 5.5 and 10 mM acetic acid, 25° C.) | binding to R0 form of rat PTHR1, comparison in words (rat PTHR1 (R0); FIG. 1A) | EC50 (rat PTHR1 (R0); FIG. 1A, read-out: log EC50, binding to the R0 form of the rat PTH receptor (converted)) [nM] | solubility in PBS pH 7.4 (percent of acetic acid sample), in words [3] | Substance | binding to RG form of rat PTHR1, comparison in words (rat PTHR1 (RG); FIG. 1B) | stability at 40° C., HPLC finding ([2]; 40° C.) | stronger binding to the R0 form of the rat PTH receptor as compared to PTH(1-34) (rat PTHR1 (R0); FIG. 1A) | blood calcium level in PD mice (PD PTH receptor)
1.45 | ~4 | – | – | – | – | – | AVAEIQLMHQRAKWIQDLRRRFFLHHLIAEIHTAEI-OH [SP-PTH, [Ala^1,3,12,Gln^10,Arg^11,Trp^14]PTH(1-14)/PTHrP(15-36)] | – | – | – | –
0.209 | – | 0.1 | near full stability | strongest binding | 0.2 | solubility similar to hPTH(1-34)NH2 | AVAEIQLMHQRAKWIQDARRRAFLHKLIAEIHTAEI-OH [SP-PTH-AAK, [Ala^1,3,12,18,22,Gln^10,Arg^11,Trp^14,Lys^26]PTH(1-14)/PTHrP(15-36)] | strongest binding; also recorded: increased | a degraded product, likely a methionine-oxide derivative, was detected | greater than two orders of magnitude increase in binding | reduced blood calcium level for at least six hours after injection
